Where two headings read alike, the source gives them in different places.

The target of data set [1] is VQIVYK (SEQ ID NO:10) peptide derived from tau (Homo sapiens, UniProt P10636). In words: In vitro tau-like VQIVYK aggregation assay (Thioflavin S). It counts as biochemical. The protocol:
In the presence of polyglutamic acid (or heparin), VQIVYK (SEQ ID NO:10) aggregates which can be further detected by Thioflavin S (excitation 485 nm and emission 535) with emission intensity greatly increasing.
First, different concentrations of polyglutamic acid (0, 100 μM, 250 μM, and 400 μM) VQIVYK (SEQ ID NO:10) and either […] (NH4Ac) 50 mM pH 6.5 or MOPS 20 mM pH 6.5 and Thioflavin S 5 μM were mixed together and incubated at room temperature. The extent of aggregation was read at excitation 485 nm and emission 535 nm using the infinite 200 system with the Magellan program.
The peptides were added at a range of concentrations (10^−17-10^−9 M) and the extent of aggregation of 100 μM VQIVYK (SEQ ID NO:10) was tested in the presence of polyglutamate 250 μM in MOPS 20 μM, pH 6.5 for 7 days.
In order to avoid reading self peptide aggregation as VQIVYK aggregation, for each peptide concentration, the fluorescence of the peptide solution without VQIVYK was subtracted from the fluorescence of each peptide concentration containing VQIVYK.

For data set [2] the following is noted: intranasal administration to rats, dogs or humans; cited from earlier work.
Data set [3] has as its system fibroblast-like cells and neuronal-like cells. The conditions noted are these: cited from earlier work.
Data set [4] concerns newborn apolipoprotein E deficient mice. The conditions noted are these: newborn apolipoprotein E deficient mice subjected to hypoxia; cited from earlier work.
For data set [5] the following is noted: intranasal administration in the rat; cited from earlier work.
Data set [6] deals with rat cerebral cortical neurons. The conditions noted are these: cited from earlier work.
The subject of data set [7] is beta amyloid peptide (1-42) toxicity. To be noted: cited from earlier work.
The subject of data set [8] is primary hippocampal neurons from presenilin 1 (PSI) mutant knock-in mice. The conditions noted are these: pretreatment; cited from earlier work.
Data set [9] concerns beta amyloid peptide 25-35 neurotoxicity. The conditions noted are these: cited from earlier work.

In the case of Asn-Ala-Pro-Val-Ser-Ile-Pro-Gln [NAP], in [1] (100 μM VQIVYK, polyglutamate 250 μM, MOPS pH 6.5, 7 days, FIG. 4, p<0.0005 vs. control), the “inhibition of tau aggregation at 10^−13M” value is given as “the effect of NAP seems to diminish”. Besides, the “prevention of tau aggregation (overall)” value in data set [1] (peptides at 10^−17-10^−9 M) is recorded as “effective for preventing tau aggregation”. Besides, the plasma levels entry in [2] was “measurable plasma levels”. Also, the “protection against oxidative stress” value in data set [3] (fibroblast-like cells) is “did not protect fibroblast-like cells”; in data set [3] (neuronal-like cells), “did protect neuronal-like cells”. Besides, the neurodevelopment result in data set [4] is on record as “enhances neurodevelopment”. Moreover, in data set [5], the appearance in plasma entry is given as “rapid appearance in plasma”. Besides, in data set [6] (neuronal-enriched cultures), the “protection against beta amyloid (25-35)” value is recorded as “protected against beta amyloid (25-35)”. In [6] (neurons seeded on a bed of astrocytes), the “protection against beta amyloid (25-35) toxicity” value is on record as “protect against beta amyloid (amino acids 25-35) toxicity”. Moreover, the “protection against beta amyloid peptide (1-42) toxicity” value in data set [7] is “protection against the toxic beta amyloid peptide (1-42)”.

“SALLRSIPA (synthetic activity-dependent neuroprotective protein (ADNP) activity dependent neurotrophic factor 1 (ADNF-1) active core site, ADNF-9)”: the “protection of neurons with increased vulnerability to excitotoxicity” value in data set [8] is recorded as “protected by pretreatment with ADNF-9”.

B1: recombinant ADNP: recombinant activity-dependent neuroprotective protein (protein, UniProt Q9H2P0 1-1102, looked up)
Activity-dependent …: MFQLPVNNLGSLRKARKTVKKILSDIGLEYCKEHIEDFKQFEPNDFYLKNTTWEDVGLWDPSLTKNQDYRTKPFCCSACPFSSKFFSAYKSHFRNVHSEDFENRILLNCPYCTFNADKKTLETHIKIFHAPNASAPSSSLSTFKDKNKNDGLKPKQADSVEQAVYYCKKCTYRDPLYEIVRKHIYREHFQHVAAPYIAKAGEKSLNGAVPLGSNAREESSIHCKRCLFMPKSYEALVQHVIEDHERIGYQVTAMIGHTNVVVPRSKPLMLIAPKPQDKKSMGLPPRIGSLASGNVRSLPSQQMVNRLSIPKPNLNSTGVNMMSSVHLQQNNYGVKSVGQGYSVGQSMRLGLGGNAPVSIPQQSQSVKQLLPSGNGRSYGLGSEQRSQAPARYSLQSANASSLSSGQLKSPSLSQSQASRVLGQSSSKPAAAATGPPPGNTSSTQKWKICTICNELFPENVYSVHFEKEHKAEKVPAVANYIMKIHNFTSKCLYCNRYLPTDTLLNHMLIHGLSCPYCRSTFNDVEKMAAHMRMVHIDEEMGPKTDSTLSFDLTLQQGSHTNIHLLVTTYNLRDAPAESVAYHAQNNPPVPPKPQPKVQEKADIPVKSSPQAAVPYKKDVGKTLCPLCFSILKGPISDALAHHLRERHQVIQTVHPVEKKLTYKCIHCLGVYTSNMTASTITLHLVHCRGVGKTQNGQDKTNAPSRLNQSPSLAPVKRTYEQMEFPLLKKRKLDDDSDSPSFFEEKPEEPVVLALDPKGHEDDSYEARKSFLTKYFNKQPYPTRREIEKLAASLWLWKSDIASHFSNKRKKCVRDCEKYKPGVLLGFNMKELNKVKHEMDFDAEWLFENHDEKDSRVNASKTADKKLNLGKEDDSSSDSFENLEEESNESGSPFDPVFEVEPKISNDNPEEHVLKVIPEDASESEEKLDQKEDGSKYETIHLTEEPTKLMHNASDSEVDQDDVVEWKDGASPSESGPGSQQVSDFEDNTCEMKPGTWSDESSQSEDARSSKPAAKKKATMQGDREQLKWKNSSYGKVEGFWSKDQSQWKNASENDERLSNPQIEWQNSTIDSEDGEQFDNMTDGVAEPMHGSLAGVKLSSQQA
Take B1: the “neuroprotection in vitro against severe oxidative stress and beta amyloid peptide 25-35” value in data set [9] is given as “neuroprotective in vitro”.
